The test system of data set [1] is patient in SRSE. Kind of data set: Treatment of one patient in super-refractory status epilepticus (SRSE) with allopregnanolone infusion. It counts as in vivo, human. From the text:
A physician at the Massachusetts General Hospital, Boston, Mass. treated one patient in SRSE with allopregnanolone in a hydroxyl-propyl beta cyclodextrin formulation. The patient was a previously-healthy, person, college graduate who was started on allopregnanolone on their 92nd day of SRSE.
During their hospital course, the patient had previously been treated with propofol, midazolam, lacosamide, phenytoin, phenobarbital, ketamine, clonazepam, levetiracetam, valproate, pentobarbital, topiramate, steroids, pyridoxine, coq-10, lidocaine, electroconvulsive therapy (ECT), bromides, hypothermia, a ketogenic diet, and acupuncture.
(§1) At the time that allopregnanolone was started, the patient was still in a pentobarbital-induced coma as well as receiving lacosamide, phenobarbital, clonazepam, and levetiracetam. The patient was started on allopregnanolone at a continuous infusion rate of 86 μg/kg/h for 5 days, after which the allopregnanolone was rapidly tapered and discontinued over a 24-hour period. Plasma samples were drawn at 5 h, 29 h, 53 h, 77 h, 101 h, 125 h, 149 h, and 173 h and are shown on FIG. 2. The plasma level rose and by Day 2 had achieved the target level of 150 nmoles/L. The pentobarbital was tapered and discontinued over the first 36 hours of allopregnanolone therapy. […] They continued to improve and was conversant, making jokes, and in a rehabilitation facility as of April 2013.

Data set [2] is described as follows: Plasma exposure of allopregnanolone from human SE study. The following applies: by Day 2; continuous IV infusion 86 μg/kg/h; single SRSE patient. It counts as in vivo. On the procedure:
FIG. 2. Plasma exposure of allopregnanolone from human SE study. Plasma concentration profile over time of allopregnanolone in a single patient. The patient was dosed allopregnanolone (ALLO) at 1.5 mg/mL in 6% hydroxypropyl-β-cyclodextrin in 0.9% sodium chloride intravenously for 5 days (120 h). The infusion rate was 86 μg/kg/h. The patient was dosed 5.6 mg/h of allopregnanolone at 3.8 mL/h. Plasma concentration was analyzed 2 hours prior to the start of infusion and then 52, 76, 100, 124, and 148 hours post-infusion.
as §1

Data set [3] relates to patients with status epilepticus. The note with it: cited from earlier work.

This is an account of results in US12048706B2, “Methods of treating epilepsy or status epilepticus” (Sage Therapeutics, Inc., priority 2012, dated 2024).

Read-outs that look alike come from different tables or passages of the source.

`CC(=O)[C@H]1CC[C@H]2[C@@H]3CC[C@H]4C[C@H](O)CC[C@]4(C)[C@H]3CC[C@]12C` [allopregnanolone, 3 alpha-hydroxy-5 alpha-pregnan-20-one]: the “adverse events attributed to allopregnanolone” value in data set [1] (86 μg/kg/h for 5 days, then taper over 24 hours) is “no adverse events”. In data set [1] (36-hour time point, patient entirely weaned from pentobarbital, infusion 86 μg/kg/h), the EEG result is reported as “had begun to normalize”. The “clinical state of the patient” value in data set [1] (at 72 hours, infusion 86 μg/kg/h) is “awake and followed simple midline commands”. Further, the plasma level in data set [2] stood at 150 nM.
For `O=C1Nc2ccc(Cl)cc2C(c2ccccc2Cl)=NC1O` (stereo not drawn) [lorazepam], the “patients who did not respond to first line treatment” value in data set [3] (intravenous (IV) treatment) is 36.6%.
With `Cc1ncc2n1-c1ccc(Cl)cc1C(c1ccccc1F)=NC2` [midazolam], the “patients who did not respond to first line treatment” value in data set [3] (intramuscular (IM) treatment) is on record as 26.6%.
